From patent publication US20160032269A1, “BUFFERS FOR USE WITH POLYMERASES” (priority 2014, published 2016)
“Also recorded” adds a separate entry of the source.

Columns and labels:
[1] = system: polymerase derived from two parental polymerases, Pfu and DeepVent, and fused with an Sso7d; test: Effect of surfactant additives on PCR yield (agarose gel); format: biochemical; settings: for PCR yield: additive in PCR reaction mixture, 20 ng template DNA, FIG. 1
Method: The effect of various surfactants on polymerase activity and yield in a PCR reaction mixture was tested. A polymerase derived from two parental polymerases, Pfu and DeepVent, and fused with an Sso7d, was formulated in a variety of reaction mixtures in an effort to identify reaction components that improve PCR yield.
A reaction mixture comprising polymerase, Tris-HCL pH 9.0, KCl, ammonium sulfate, 20 ng template DNA and target primers was tested with one or more additional components added as follows (results shown in FIG. 1):
Ranges of concentration of CTAB and SDS were tested and additional components such as octyl b-D-glucopyranoside (OGP) and bovine serum albumin (BSA) were also tested. See, FIG. 2. The lanes of FIG. 2. are described in Table 2 below:
(§1) In view of the surprising success of the reaction mixture comprising SDS and CTAB, a 5× stock solution was generated.

[2] = Precipitate formation in 5× stock solution; format: physicochemical
From the text: as §1

## C[C@H](CCC(=O)NCCC[N+](C)(C)CCCS(=O)(=O)[O-])[C@H]1CC[C@H]2[C@@H]3[C@H](O)C[C@@H]4C[C@H](O)CC[C@]4(C)[C@H]3C[C@H](O)[C@]12C [CHAPS, 3-[(3-cholamidopropyl)dimethylammonio]-1-propanesulfonate]
[1]; CHAPS in 5× stock solution used in PCR reactions, data not shown
  interference with PCR: did not interfere with PCR
[2]; 5× stock solution contained 1% CHAPS
  precipitate in stock solution: no precipitate was observed
[2]; CHAPS added to the 5× stock solution
  precipitate in stock solution: prevented formation of a precipitate

## CCCCCCCCCCCCCCCC[N+](C)(C)C.[Br-] [CTAB, cetyl trimethylammonium bromide]
[1]
  PCR yield: did not improve PCR yield; also recorded: does not provide any apparent benefit

## CCCCCCCCCCCCOS(=O)(=O)[O-].[Na+] [SDS, sodium dodecyl sulfate]
[1]; sulfate
  PCR yield: did not improve PCR yield; also recorded: does not provide any apparent benefit
